Test results from patent publication US20250136606A1, “MODULATORS OF TRPML, THEIR COMPOSITIONS AND METHODS OF USE” (Caraway Therapeutics, Inc., priority 2021, published 2025).

Legend:
Assay type in all cases: cell-based
TRPML1 = TRPML1 (Homo sapiens, UniProt Q9GZU1); assay: Fluorescent TRPML1 assay (Fluo4-AM calcium fluorescence in doxycycline-induced HEK-293 Trex cells)
How it was run: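 First, expression of surface-targeted mutant human TRPML1 is induced in HEK-293 Trex cells with 0.5 ug/mL doxycycline the day before. Next, cells take up 1 micromolar Fluo4-AM in Ringer's with 0.1% Pluronic. Finally, they are added to compounds (6 nanomolar–20 micromolar final) in 10 mM calcium Ringer's and fluorescence is read.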

TRPML3 = target: T1, TRPML3 (Homo sapiens, UniProt Q8TDD5); assay: Fluorescent TRPML3 assay (performed as for TRPML1, substituting the TRPML3 subtype)
T1 construct: expressed in transfected cells
T1 sequence (Q8TDD5 1-553): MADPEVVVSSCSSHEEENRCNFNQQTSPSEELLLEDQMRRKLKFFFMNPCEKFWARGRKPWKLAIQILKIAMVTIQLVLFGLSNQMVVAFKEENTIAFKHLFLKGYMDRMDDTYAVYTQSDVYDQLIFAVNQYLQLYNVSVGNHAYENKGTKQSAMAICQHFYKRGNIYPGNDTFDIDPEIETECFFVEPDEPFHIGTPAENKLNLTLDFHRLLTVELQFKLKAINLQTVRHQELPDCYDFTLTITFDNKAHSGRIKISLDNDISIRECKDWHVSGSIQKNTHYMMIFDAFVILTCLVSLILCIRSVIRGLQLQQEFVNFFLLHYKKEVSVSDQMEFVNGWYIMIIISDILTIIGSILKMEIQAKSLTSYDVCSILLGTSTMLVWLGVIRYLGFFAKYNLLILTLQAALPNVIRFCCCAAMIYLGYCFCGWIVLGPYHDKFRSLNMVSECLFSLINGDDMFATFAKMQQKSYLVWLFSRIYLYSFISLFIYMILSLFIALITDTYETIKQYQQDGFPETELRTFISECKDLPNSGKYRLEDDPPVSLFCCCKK
How it was run: (§1)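 HEK-293 Trex cells with doxycycline-induced (0.5 ug/mL) surface-directed human TRPML subtype, loaded with 1 μM Fluo4-AM, resuspended in Ringer's with 10 mM calcium. Compounds at 20 μM to 6 nM final in half-log steps, triplicate; fluorescence ex 480/em 540; EC50 by non-linear regression versus plate controls.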

TRPML2 = target: T2, TRPML2 (Homo sapiens, UniProt Q8IZK6); assay: Fluorescent TRPML2 assay (performed as for TRPML1, substituting the TRPML2 subtype)
T2 construct: expressed in transfected cells
T2 sequence (Q8IZK6 1-566): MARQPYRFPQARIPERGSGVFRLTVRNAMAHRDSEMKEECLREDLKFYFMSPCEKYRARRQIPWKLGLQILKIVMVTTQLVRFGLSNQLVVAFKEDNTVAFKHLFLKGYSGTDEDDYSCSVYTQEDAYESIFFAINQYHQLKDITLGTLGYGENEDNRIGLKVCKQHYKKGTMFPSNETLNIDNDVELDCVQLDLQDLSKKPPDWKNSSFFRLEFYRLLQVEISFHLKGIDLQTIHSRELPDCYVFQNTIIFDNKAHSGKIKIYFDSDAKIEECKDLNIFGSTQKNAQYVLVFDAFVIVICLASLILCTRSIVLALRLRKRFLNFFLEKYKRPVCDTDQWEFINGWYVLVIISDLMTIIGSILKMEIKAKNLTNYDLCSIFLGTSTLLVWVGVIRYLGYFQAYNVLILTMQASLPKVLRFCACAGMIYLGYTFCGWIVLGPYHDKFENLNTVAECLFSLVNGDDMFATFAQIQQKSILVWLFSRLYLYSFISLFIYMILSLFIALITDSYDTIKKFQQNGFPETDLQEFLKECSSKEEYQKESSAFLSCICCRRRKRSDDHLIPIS
How it was run: as §1

Chain of TRPML1 (Q9GZU1 whole entry L15A/L16A/L577A/L578A, form open): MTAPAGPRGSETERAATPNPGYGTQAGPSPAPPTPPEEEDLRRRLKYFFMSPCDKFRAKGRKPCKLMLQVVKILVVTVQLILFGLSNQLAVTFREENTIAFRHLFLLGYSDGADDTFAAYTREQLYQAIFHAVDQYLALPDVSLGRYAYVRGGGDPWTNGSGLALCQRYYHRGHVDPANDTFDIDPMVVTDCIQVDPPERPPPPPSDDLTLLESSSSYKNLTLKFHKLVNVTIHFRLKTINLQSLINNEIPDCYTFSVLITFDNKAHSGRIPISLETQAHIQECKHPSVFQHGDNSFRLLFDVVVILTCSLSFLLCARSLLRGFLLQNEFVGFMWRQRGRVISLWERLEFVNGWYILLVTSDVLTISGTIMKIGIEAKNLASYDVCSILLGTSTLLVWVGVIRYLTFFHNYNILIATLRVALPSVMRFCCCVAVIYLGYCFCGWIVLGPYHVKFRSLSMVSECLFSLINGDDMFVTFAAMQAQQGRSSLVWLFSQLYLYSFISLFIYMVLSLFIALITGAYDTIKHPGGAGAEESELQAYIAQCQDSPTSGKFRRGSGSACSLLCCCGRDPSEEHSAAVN

`Cc1cn(-c2cccc(C(F)(F)F)c2)c2ncnc(N3CCN(C(=O)OC(C)(C)C)C[C@@H]3C)c12` [Compound 684, tert-butyl (S)-3-methyl-4-(5-methyl-7-(3-(trifluoromethyl)phenyl)-7H-pyrrolo[2,3-d]pyrimidin-4-yl)piperazine-1-carboxylate] was tested, and the EC50 (TRPML1) was < 0.1 µM, the EC50 (TRPML3) was < 0.1 µM and the EC50 (TRPML2) was < 0.1 µM.

`Cc1cn(-c2ccccc2)c2ncnc(N3CCN(C(=O)OC(C)(C)C)C[C@@H]3C)c12` [Compound 685, tert-butyl (S)-3-methyl-4-(5-methyl-7-phenyl-7H-pyrrolo[2,3-d]pyrimidin-4-yl)piperazine-1-carboxylate] was tested, and the EC50 (TRPML1) was < 0.1 µM, the EC50 (TRPML3) was < 0.1 µM and the EC50 (TRPML2) was 0.5 to 2 µM.

For `Cc1cn(-c2cccc(C#N)c2)c2ncnc(N3CCN(C(=O)OC(C)(C)C)C[C@@H]3C)c12` [Compound 686, tert-butyl (S)-4-(7-(3-cyanophenyl)-5-methyl-7H-pyrrolo[2,3-d]pyrimidin-4-yl)-3-methylpiperazine-1-carboxylate], the EC50 (TRPML1) was < 0.1 µM, the EC50 (TRPML3) was < 0.1 µM and the EC50 (TRPML2) was < 0.1 µM.

For `Cc1cn(-c2cc(F)cc(F)c2)c2ncnc(N3CCN(C(=O)OC(C)(C)C)C[C@@H]3C)c12` [Compound 687, tert-butyl (S)-4-(7-(3,5-difluorophenyl)-5-methyl-7H-pyrrolo[2,3-d]pyrimidin-4-yl)-3-methylpiperazine-1-carboxylate], the EC50 (TRPML1) was < 0.1 µM, the EC50 (TRPML3) was < 0.1 µM and the EC50 (TRPML2) was 0.1 to 0.5 µM.

In the case of `Cc1cn(-c2cccc(Cl)c2)c2ncnc(N3CCN(C(=O)OC(C)(C)C)C[C@@H]3C)c12` [Compound 688, tert-butyl (S)-4-(7-(3-chlorophenyl)-5-methyl-7H-pyrrolo[2,3-d]pyrimidin-4-yl)-3-methylpiperazine-1-carboxylate], the EC50 (TRPML1) is reported as < 0.1 µM, the EC50 (TRPML3) is reported as < 0.1 µM and the EC50 (TRPML2) is reported as < 0.1 µM.

For `Cc1cn(-c2cncc(F)c2)c2ncnc(N3CCN(C(=O)OC(C)(C)C)C[C@@H]3C)c12` [Compound 689, tert-butyl (S)-4-(7-(5-fluoropyridin-3-yl)-5-methyl-7H-pyrrolo[2,3-d]pyrimidin-4-yl)-3-methylpiperazine-1-carboxylate], the EC50 (TRPML1) was < 0.1 µM, the EC50 (TRPML3) was 0.1 to 0.5 µM and the EC50 (TRPML2) was 0.1 to 0.5 µM.

For `Cc1cn(-c2ccccn2)c2ncnc(N3CCN(C(=O)OC(C)(C)C)C[C@@H]3C)c12` [Compound 690, tert-butyl (S)-3-methyl-4-(5-methyl-7-(pyridin-2-yl)-7H-pyrrolo[2,3-d]pyrimidin-4-yl)piperazine-1-carboxylate], the EC50 (TRPML1) was < 0.1 µM, the EC50 (TRPML3) was < 0.1 µM and the EC50 (TRPML2) was 0.5 to 2 µM.

In the case of `Cc1cn(-c2ccc(F)cc2)c2ncnc(N3CCN(C(=O)OC(C)(C)C)C[C@@H]3C)c12` [Compound 692, tert-butyl (S)-4-(7-(4-fluorophenyl)-5-methyl-7H-pyrrolo[2,3-d]pyrimidin-4-yl)-3-methylpiperazine-1-carboxylate], the EC50 (TRPML1) is reported as < 0.1 µM, the EC50 (TRPML3) is reported as < 0.1 µM and the EC50 (TRPML2) is reported as < 0.1 µM.

With `Cc1cn(-c2cc(F)cc(Cl)c2)c2ncnc(N3CCN(C(=O)OC(C)(C)C)C[C@@H]3C)c12` [Compound 693, tert-butyl (S)-4-(7-(3-chloro-5-fluorophenyl)-5-methyl-7H-pyrrolo[2,3-d]pyrimidin-4-yl)-3-methylpiperazine-1-carboxylate] the EC50 (TRPML1) was < 0.1 µM, the EC50 (TRPML3) was < 0.1 µM and the EC50 (TRPML2) was 0.1 to 0.5 µM.

`C[C@@H]1CN(c2ncnc3c2c(C(F)F)cn3-c2cccc(F)c2)[C@@H](C)CN1C(=O)OC(C)(C)C` [Compound 695, tert-butyl (2R,5S)-4-(5-(difluoromethyl)-7-(3-fluorophenyl)-7H-pyrrolo[2,3-d]pyrimidin-4-yl)-2,5-dimethylpiperazine-1-carboxylate] was tested, and the EC50 (TRPML1) was < 0.1 µM, the EC50 (TRPML3) was < 0.1 µM and the EC50 (TRPML2) was 0.1 to 0.5 µM.

In the case of `CCc1cn(-c2cc(C(F)(F)F)ccn2)c2ncnc(N3C[C@@H](C)N(C(=O)OC(C)(C)C)C[C@@H]3C)c12` [Compound 696, tert-butyl (2R,5S)-4-(5-ethyl-7-(4-(trifluoromethyl)pyridin-2-yl)-7H-pyrrolo[2,3-d]pyrimidin-4-yl)-2,5-dimethylpiperazine-1-carboxylate], the EC50 (TRPML1) is reported as < 0.1 µM, the EC50 (TRPML3) is reported as < 0.1 µM and the EC50 (TRPML2) is reported as < 0.1 µM.

In the case of `CCc1cn(-c2cc(F)ccn2)c2ncnc(N3C[C@@H](C)N(C(=O)OC(C)(C)C)C[C@@H]3C)c12` [Compound 697, tert-butyl (2R,5S)-4-(5-ethyl-7-(4-fluoropyridin-2-yl)-7H-pyrrolo[2,3-d]pyrimidin-4-yl)-2,5-dimethylpiperazine-1-carboxylate], the EC50 (TRPML1) is reported as < 0.1 µM, the EC50 (TRPML3) is reported as < 0.1 µM and the EC50 (TRPML2) is reported as < 0.1 µM.

In the case of `CC(C)c1cn(-c2cc(F)ccn2)c2ncnc(N3C[C@@H](C)N(C(=O)OC(C)(C)C)C[C@@H]3C)c12` [Compound 698, tert-butyl (2R,5S)-4-(7-(4-fluoropyridin-2-yl)-5-isopropyl-7H-pyrrolo[2,3-d]pyrimidin-4-yl)-2,5-dimethylpiperazine-1-carboxylate], the EC50 (TRPML1) is reported as < 0.1 µM, the EC50 (TRPML3) is reported as < 0.1 µM and the EC50 (TRPML2) is reported as 0.1 to 0.5 µM.

For `CC(C)c1cn(-c2cc(C(F)(F)F)ccn2)c2ncnc(N3C[C@@H](C)N(C(=O)OC(C)(C)C)C[C@@H]3C)c12` [Compound 699, tert-butyl (2R,5S)-4-(5-isopropyl-7-(4-(trifluoromethyl)pyridin-2-yl)-7H-pyrrolo[2,3-d]pyrimidin-4-yl)-2,5-dimethylpiperazine-1-carboxylate], the EC50 (TRPML1) was < 0.1 µM, the EC50 (TRPML3) was < 0.1 µM and the EC50 (TRPML2) was 0.1 to 0.5 µM.

With `CC(C)c1cn(-c2cc(C#N)ccn2)c2ncnc(N3C[C@@H](C)N(C(=O)OC(C)(C)C)C[C@@H]3C)c12` [Compound 700, tert-butyl (2R,5S)-4-(7-(4-cyanopyridin-2-yl)-5-isopropyl-7H-pyrrolo[2,3-d]pyrimidin-4-yl)-2,5-dimethylpiperazine-1-carboxylate] the EC50 (TRPML1) was < 0.1 µM, the EC50 (TRPML3) was < 0.1 µM and the EC50 (TRPML2) was 0.1 to 0.5 µM.

In the case of `Cc1cn(-c2cc(F)ccn2)c2ccnc(N3C[C@@H](C)N(C(=O)OC(C)(C)C)C[C@@H]3C)c12` [Compound 701, tert-butyl (2R,5S)-4-(1-(4-fluoropyridin-2-yl)-3-methyl-1H-pyrrolo[3,2-c]pyridin-4-yl)-2,5-dimethylpiperazine-1-carboxylate], the EC50 (TRPML1) is reported as < 0.1 µM, the EC50 (TRPML3) is reported as 0.1 to 0.5 µM and the EC50 (TRPML2) is reported as > 2 µM.

With `Cc1cn(-c2cc(C(F)(F)F)ccn2)c2ccnc(N3C[C@@H](C)N(C(=O)OC(C)(C)C)C[C@@H]3C)c12` [Compound 702, tert-butyl (2R,5S)-2,5-dimethyl-4-(3-methyl-1-(4-(trifluoromethyl)pyridin-2-yl)-1H-pyrrolo[3,2-c]pyridin-4-yl)piperazine-1-carboxylate] the EC50 (TRPML1) was < 0.1 µM, the EC50 (TRPML3) was 0.5 to 2 µM and the EC50 (TRPML2) was 0.5 to 2 µM.

For `C[C@H]1CN(C(=O)OC(C)(C)C)CCN1c1nccc2c1c(-c1ccccc1F)cn2-c1cccc(F)c1` [Compound 703, tert-butyl (S)-4-(3-(2-fluorophenyl)-1-(3-fluorophenyl)-1H-pyrrolo[3,2-c]pyridin-4-yl)-3-methylpiperazine-1-carboxylate], the EC50 (TRPML1) was < 0.1 µM, the EC50 (TRPML3) was < 0.1 µM and the EC50 (TRPML2) was < 0.1 µM.

In the case of `C[C@@H]1CN(c2nccc3c2c(C2CC2)cn3-c2cccc(F)c2)CCN1C(=O)OC(C)(C)C` [Compound 704, tert-butyl (R)-4-(3-cyclopropyl-1-(3-fluorophenyl)-1H-pyrrolo[3,2-c]pyridin-4-yl)-2-methylpiperazine-1-carboxylate], the EC50 (TRPML1) is reported as < 0.1 µM, the EC50 (TRPML3) is reported as < 0.1 µM and the EC50 (TRPML2) is reported as < 0.1 µM.

In the case of `Cc1cn(-c2cc(C#N)ccn2)c2ccnc(N3C[C@@H](C)N(C(=O)OC(C)(C)C)C[C@@H]3C)c12` [Compound 705, tert-butyl (2R,5S)-4-(1-(4-cyanopyridin-2-yl)-3-methyl-1H-pyrrolo[3,2-c]pyridin-4-yl)-2,5-dimethylpiperazine-1-carboxylate], the EC50 (TRPML1) is reported as < 0.1 µM, the EC50 (TRPML3) is reported as < 0.1 µM and the EC50 (TRPML2) is reported as 0.5 to 2 µM.
